Experimental data taken from patent US11285170B2, “Fractionated antimicrobial compositions and use thereof” (priority 2017, dated 2022).
Converted amounts (≈) assume the structure as drawn. Read-outs that look alike come from different tables or passages of the source.

What was measured:
[1] = tested on: Candida glabrata CG15, VT18; experiment: MIC against multiresistant C. glabrata; assay type: cell-based
Method: (§1) In this example, the efficacy of Examples 1, 10 and 13 were tested against multi-drug resistant microorganisms.
(§2) Bacterial strains tested: Pseudomonas aeruginosa AGR 18 and MR23 multiresistant. Fungal strain: Candida glabrata CG15, VT18 resistant to Amphotericin B and Voriconazole Microbiological efficacy was determined as the Minimal Inhibitory Concentration.
The bactericidal activities of Examples 1, 10 and 13 against multiresistant C. glabrata isolates are shown below in Table 18.

[2] = tested on: Pseudomonas aeruginosa AGR 18 and MR23 multiresistant; experiment: MIC against multi-drug resistant P. aeruginosa; assay type: cell-based
Method: as §1, §2
The bactericidal activities of Examples 1, 10 and 13 against multiresistant P. aeruginosa isolates are shown below in Table 17.

[3] = tested on: Vancomycin resistant S. aureus (VRSA); experiment: MIC by broth macrodilution against S. aureus isolates; assay type: cell-based; conditions: Staphylococcus aureus
Method: In this example, the efficacy of the inventive preparations was tested against Vancomycin resistant S. aureus (VRSA)
The MICs were determined using a broth macrodilution method with cation-adjusted Mueller-Hinton broth II (Becton Dickinson) at standard inoculum (10^5 cfu/mL) following the CLSI recommendations. The cultures used in this study were bacterial clinical isolates from human infections.

[4] = tested on: MSSA strain ATCC 29213; experiment: MIC by broth macrodilution against S. aureus isolates, MSSA strain; assay type: cell-based; conditions: Staphylococcus aureus, read-out: MSSA strain MIC
Excerpt: The cultures used in this study were bacterial clinical isolates from human infections.

[5] = tested on: P. aeruginosa; experiment: MIC by broth macrodilution, isolates from patients with cystic fibrosis, Example 22; assay type: cell-based; conditions: Pseudomonas aeruginosa, CLSI, read-out: MIC against P. aeruginosa
Method: (§3) The potency of Example Nos. 1, 5 and 10 were examined against bacterial isolates from patients with cystic fibrosis. The MICs values were determined by the broth macrodilution method according to the CLSI guideline. For the in vivo studies, 8-week-old C57BL/6 mice were intranasally infected with P. aeruginosa MR-6 (2×10^7 cfu/mouse)+A. fimigatus (6×10^6 cfu/mouse).

[6] = tested on: A. fumigatus; experiment: MIC by broth macrodilution, Example 22; assay type: cell-based, Aspergillus fumigatus; conditions: CLSI
Method: as §3

[7] = tested on: P. aeruginosa; experiment: Animal model of respiratory infection, mortality; assay type: in vivo, C57BL/6 mice; conditions: mice, intranasal infection; treatment 12 h after infection by intranasal inhalation at 32×MIC
Method: (§4) In this example the efficacy of the preparations were tested against an animal model of mixed respiratory infection.
as §3

[8] = tested on: A. fumigatus; experiment: Animal model of respiratory infection, mortality; assay type: in vivo, C57BL/6 mice; conditions: mice, intranasal infection; treatment 12 h after infection by intranasal inhalation at 32×MIC
Method: as §4, §3

[9] = tested on: P. aeruginosa + A. fumigatus; experiment: Animal model of mixed respiratory infection, mortality; assay type: in vivo, C57BL/6 mice; conditions: mice, intranasal infection; treatment 12 h after infection by intranasal inhalation at 32×MIC
Method: as §4, §3

[10] = tested on: Ehrlich solid tumor; experiment: Ehrlich solid tumor, combined effect with anticancer drugs; assay type: in vivo; conditions: combination study, 0.2 ml of 0.01% solution intraperitoneally
Method: In this experiment, a model of continuous Ehrlich solid tumor was used to study combined effect of claimed product with anticancer drugs. The drugs were administered simultaneously with the tumor transplantation (0.2 ml of 0.01% solution) intraperitoneally. The control animals received water (used as solvent for the drugs tested).

[11] = VT-A-199, read-out: VRSA strain MIC
[12] = VT-V-18, read-out: VRSA strain MIC
[13] = VT-V-25, read-out: VRSA strain MIC

Question: For `C[C@@H]1[C@H](O)[C@@H](C)/C=C/C=C/C=C/C=C/C=C/C=C/C=C/[C@H](O[C@@H]2O[C@H](C)[C@@H](O)[C@H](N)[C@@H]2O)C[C@@H]2O[C@](O)(C[C@@H](O)C[C@@H](O)[C@H](O)CC[C@@H](O)C[C@@H](O)CC(=O)O[C@H]1C)C[C@H](O)[C@H]2C(=O)O` [AMB], which Minimal inhibitory concentration ([1]; C. glabrata CG1514053) is on record?
Answer: 4 µg/mL (≈ 4.33 µM)

Question: What about the Minimal inhibitory concentration ([1]; C. glabrata VT18) of the same compound?
Answer: 8 µg/mL (≈ 8.66 µM)

Question: `NCC[C@H](O)C(=O)N[C@@H]1C[C@H](N)[C@@H](O[C@H]2O[C@H](CN)[C@@H](O)[C@H](O)[C@H]2O)[C@H](O)[C@H]1O[C@H]1O[C@H](CO)[C@@H](O)[C@H](N)[C@H]1O` [Amikacin] was tested. Which MIC ([2]; P. aeruginosa strain AGR 18) did it give?
Answer: 128 µg/mL (≈ 219 µM)

Question: And the MIC ([2]; P. aeruginosa strain MR23)?
Answer: 256 µg/mL (≈ 437 µM)

Question: With `CC1(C)S[C@@H]2[C@H](NC(=O)[C@H](N)c3ccccc3)C(=O)N2[C@H]1C(=O)O` [Ampicillin] as the compound, how does the MIC [3, 11] read?
Answer: 16 µg/mL (≈ 45.8 µM)

Question: And the MIC [3, 12]?
Answer: 64 µg/mL (≈ 183 µM)

Question: What about the MIC [3, 13] of the same compound?
Answer: 32 µg/mL (≈ 91.6 µM)

Question: And the MIC ([4]; ATCC 29213)?
Answer: 0.25 µg/mL (≈ 0.715 µM)

Question: For `C[C@H]1[C@H](NC(=O)/C(=N\OC(C)(C)C(=O)O)c2csc(N)n2)C(=O)N1S(=O)(=O)O` [Aztreonam, aztreonam], which MIC [5] is on record?
Answer: 64 µg/mL (≈ 147 µM)

Question: What about the “MIC against A. fumigatus” value [6] of the same compound?
Answer: not active

Question: And the “Percent mortality 96 h post infection, P. aeruginosa” value [7]?
Answer: 20%

Question: What about the “Percent mortality 96 h post infection, A. fumigatus” value [8] of the same compound?
Answer: 30%

Question: What about the MIC ([2]; P. aeruginosa strain AGR 18) of the same compound?
Answer: 32 µg/mL (≈ 73.5 µM)

Question: And the MIC ([2]; P. aeruginosa strain MR23)?
Answer: 128 µg/mL (≈ 294 µM)

Question: And the “Percent mortality 96 h post infection, P. aeruginosa + A. fumigatus” value [9]?
Answer: 60%

Question: For `CC(C)(O/N=C(\C(=O)N[C@@H]1C(=O)N2C(C(=O)[O-])=C(C[n+]3ccccc3)CS[C@H]12)c1csc(N)n1)C(=O)O` [Ceftazidime], which MIC ([2]; P. aeruginosa strain AGR 18) is on record?
Answer: 32 µg/mL (≈ 58.5 µM)

Question: What about the MIC ([2]; P. aeruginosa strain MR23) of the same compound?
Answer: 32 µg/mL (≈ 58.5 µM)

Question: How did the “Tumor size, 7 days after transplantation” value ([10]; 7 days) turn out when `N.N.[Cl][Pt][Cl]` [Cisplatin] was run?
Answer: 72.4 mm^3

Question: And the “Tumor size, 11 days after transplantation” value ([10]; 11 days)?
Answer: 180.7 mm^3

Question: And the “Tumor size, 14 days after transplantation” value ([10]; 14 days)?
Answer: 243.3 mm^3

Question: And the “Tumor size, 18 days after transplantation” value ([10]; 18 days)?
Answer: 345.8 mm^3

Question: What about the “Tumor size, 22 days after transplantation” value ([10]; 22 days) of the same compound?
Answer: 548.2 mm^3

Question: And the “Tumor size, 25 days after transplantation” value ([10]; 25 days)?
Answer: 607.7 mm^3

Question: For `CCC[C@@H]1C[C@@H](C(=O)N[C@@H]([C@H]2O[C@H](SC)[C@H](O)[C@@H](O)[C@H]2O)[C@H](C)Cl)N(C)C1` [Clindamycin], which MIC [3, 11] is on record?
Answer: 2 µg/mL (≈ 4.71 µM)

Question: What about the MIC [3, 12] of the same compound?
Answer: 4 µg/mL (≈ 9.41 µM)

Question: And the MIC [3, 13]?
Answer: 2 µg/mL (≈ 4.71 µM)

Question: What about the MIC ([4]; ATCC 29213) of the same compound?
Answer: 0.125 µg/mL (≈ 0.294 µM)

Question: `C[C@@H](O)[C@H]1C(=O)N2C(C(=O)O)=C(S[C@@H]3CN[C@H](C(=O)N(C)C)C3)[C@H](C)[C@H]12` [Meropenem] was tested. Which MIC [3, 11] did it give?
Answer: 128 µg/mL (≈ 334 µM)

Question: And the MIC [3, 12]?
Answer: 32 µg/mL (≈ 83.4 µM)

Question: What about the MIC [3, 13] of the same compound?
Answer: 128 µg/mL (≈ 334 µM)

Question: And the MIC ([4]; ATCC 29213)?
Answer: 0.125 µg/mL (≈ 0.326 µM)

Question: Which MIC ([2]; P. aeruginosa strain AGR 18) does the source give for `CCN1CCN(C(=O)N[C@@H](C(=O)N[C@@H]2C(=O)N3[C@@H]2SC(C)(C)[C@@H]3C(=O)O)c2ccccc2)C(=O)C1=O` [Piperacillin] here?
Answer: > 256 µg/mL

Question: And the MIC ([2]; P. aeruginosa strain MR23)?
Answer: 256 µg/mL (≈ 495 µM)

Question: With `NC[C@H]1O[C@H](O[C@H]2[C@H](O)[C@@H](O[C@H]3O[C@H](CO)[C@@H](O)[C@H](N)[C@H]3O)[C@H](N)C[C@@H]2N)[C@H](N)C[C@@H]1O` [Tobramycin, tobramycin] as the compound, how does the MIC [5] read?
Answer: 16 to 32 µg/mL (≈ 34.2 to 68.4 µM)

Question: And the “MIC against A. fumigatus” value [6]?
Answer: not active

Question: What about the “Percent mortality 96 h post infection, P. aeruginosa” value [7] of the same compound?
Answer: 20%

Question: What about the “Percent mortality 96 h post infection, A. fumigatus” value [8] of the same compound?
Answer: 40%

Question: And the MIC ([2]; P. aeruginosa strain AGR 18)?
Answer: 32 µg/mL (≈ 68.4 µM)

Question: And the MIC ([2]; P. aeruginosa strain MR23)?
Answer: 32 µg/mL (≈ 68.4 µM)

Question: What about the “Percent mortality 96 h post infection, P. aeruginosa + A. fumigatus” value [9] of the same compound?
Answer: 50%

Question: Which results are given for `C[C@@H](c1ncncc1F)[C@](O)(Cn1cncn1)c1ccc(F)cc1F` [VRZ]?
Answer: Minimal inhibitory concentration ([1]; C. glabrata CG1514053): 8 µg/mL (≈ 22.9 µM); Minimal inhibitory concentration ([1]; C. glabrata VT18): 4 µg/mL (≈ 11.5 µM)

Question: For `CN[C@H](CC(C)C)C(=O)N[C@H]1C(=O)N[C@@H](CC(N)=O)C(=O)N[C@H]2C(=O)N[C@H]3C(=O)N[C@H](C(=O)N[C@H](C(=O)O)c4cc(O)cc(O)c4-c4cc3ccc4O)[C@H](O)c3ccc(c(Cl)c3)Oc3cc2cc(c3O[C@@H]2O[C@H](CO)[C@@H](O)[C@H](O)[C@H]2O[C@H]2C[C@](C)(N)[C@H](O)[C@H](C)O2)Oc2ccc(cc2Cl)[C@H]1O` [Vancomycin], which MIC ([3]; read-out: VRSA strain MIC, VT-A-199) is on record?
Answer: 16 µg/mL (≈ 11 µM)

Question: And the MIC ([3]; read-out: VRSA strain MIC, VT-V-18)?
Answer: 16 µg/mL (≈ 11 µM)

Question: What about the MIC ([3]; read-out: VRSA strain MIC, VT-V-25) of the same compound?
Answer: 1 µg/mL (≈ 0.69 µM)

Question: What about the MIC [4] of the same compound?
Answer: 0.5 µg/mL (≈ 0.345 µM)
